In publication PMC8474115 (Journal of Medicinal Chemistry, 2021):
pIC50, pKi: −log10 of the molar value. Structures can show the parent of a compound that is named as a salt. Where two headings read alike, the source gives them in different places.

Tests used:
[1] = molecular target: T1, Chemokine CCR2 (IL-8RB) (Homo sapiens, UniProt P25025); assay: Eurofins SafetyScreen panel; format: binding; conditions: read-out: %inh
T1 construct: purchased Eurofins (Panlabs) SafetyScreen87 Panel

[2] = molecular target: T2, Adenosine A2A (Homo sapiens, UniProt P29274); assay: Eurofins SafetyScreen panel; format: binding
T2 construct: Eurofins (contract screening, SafetyScreen panel) PP223

[3] = molecular target: T3, Potassium Channel [hERG] (Homo sapiens, UniProt Q12809); assay: biochemical
[4] = molecular target: Ca Channel L-Type, Benzothiazepine (Rattus norvegicus, UniProt P22002); assay: Eurofins SafetyScreen panel; format: binding
Ca Channel L-Type, Benzothiazepine, sequence (P22002 whole entry): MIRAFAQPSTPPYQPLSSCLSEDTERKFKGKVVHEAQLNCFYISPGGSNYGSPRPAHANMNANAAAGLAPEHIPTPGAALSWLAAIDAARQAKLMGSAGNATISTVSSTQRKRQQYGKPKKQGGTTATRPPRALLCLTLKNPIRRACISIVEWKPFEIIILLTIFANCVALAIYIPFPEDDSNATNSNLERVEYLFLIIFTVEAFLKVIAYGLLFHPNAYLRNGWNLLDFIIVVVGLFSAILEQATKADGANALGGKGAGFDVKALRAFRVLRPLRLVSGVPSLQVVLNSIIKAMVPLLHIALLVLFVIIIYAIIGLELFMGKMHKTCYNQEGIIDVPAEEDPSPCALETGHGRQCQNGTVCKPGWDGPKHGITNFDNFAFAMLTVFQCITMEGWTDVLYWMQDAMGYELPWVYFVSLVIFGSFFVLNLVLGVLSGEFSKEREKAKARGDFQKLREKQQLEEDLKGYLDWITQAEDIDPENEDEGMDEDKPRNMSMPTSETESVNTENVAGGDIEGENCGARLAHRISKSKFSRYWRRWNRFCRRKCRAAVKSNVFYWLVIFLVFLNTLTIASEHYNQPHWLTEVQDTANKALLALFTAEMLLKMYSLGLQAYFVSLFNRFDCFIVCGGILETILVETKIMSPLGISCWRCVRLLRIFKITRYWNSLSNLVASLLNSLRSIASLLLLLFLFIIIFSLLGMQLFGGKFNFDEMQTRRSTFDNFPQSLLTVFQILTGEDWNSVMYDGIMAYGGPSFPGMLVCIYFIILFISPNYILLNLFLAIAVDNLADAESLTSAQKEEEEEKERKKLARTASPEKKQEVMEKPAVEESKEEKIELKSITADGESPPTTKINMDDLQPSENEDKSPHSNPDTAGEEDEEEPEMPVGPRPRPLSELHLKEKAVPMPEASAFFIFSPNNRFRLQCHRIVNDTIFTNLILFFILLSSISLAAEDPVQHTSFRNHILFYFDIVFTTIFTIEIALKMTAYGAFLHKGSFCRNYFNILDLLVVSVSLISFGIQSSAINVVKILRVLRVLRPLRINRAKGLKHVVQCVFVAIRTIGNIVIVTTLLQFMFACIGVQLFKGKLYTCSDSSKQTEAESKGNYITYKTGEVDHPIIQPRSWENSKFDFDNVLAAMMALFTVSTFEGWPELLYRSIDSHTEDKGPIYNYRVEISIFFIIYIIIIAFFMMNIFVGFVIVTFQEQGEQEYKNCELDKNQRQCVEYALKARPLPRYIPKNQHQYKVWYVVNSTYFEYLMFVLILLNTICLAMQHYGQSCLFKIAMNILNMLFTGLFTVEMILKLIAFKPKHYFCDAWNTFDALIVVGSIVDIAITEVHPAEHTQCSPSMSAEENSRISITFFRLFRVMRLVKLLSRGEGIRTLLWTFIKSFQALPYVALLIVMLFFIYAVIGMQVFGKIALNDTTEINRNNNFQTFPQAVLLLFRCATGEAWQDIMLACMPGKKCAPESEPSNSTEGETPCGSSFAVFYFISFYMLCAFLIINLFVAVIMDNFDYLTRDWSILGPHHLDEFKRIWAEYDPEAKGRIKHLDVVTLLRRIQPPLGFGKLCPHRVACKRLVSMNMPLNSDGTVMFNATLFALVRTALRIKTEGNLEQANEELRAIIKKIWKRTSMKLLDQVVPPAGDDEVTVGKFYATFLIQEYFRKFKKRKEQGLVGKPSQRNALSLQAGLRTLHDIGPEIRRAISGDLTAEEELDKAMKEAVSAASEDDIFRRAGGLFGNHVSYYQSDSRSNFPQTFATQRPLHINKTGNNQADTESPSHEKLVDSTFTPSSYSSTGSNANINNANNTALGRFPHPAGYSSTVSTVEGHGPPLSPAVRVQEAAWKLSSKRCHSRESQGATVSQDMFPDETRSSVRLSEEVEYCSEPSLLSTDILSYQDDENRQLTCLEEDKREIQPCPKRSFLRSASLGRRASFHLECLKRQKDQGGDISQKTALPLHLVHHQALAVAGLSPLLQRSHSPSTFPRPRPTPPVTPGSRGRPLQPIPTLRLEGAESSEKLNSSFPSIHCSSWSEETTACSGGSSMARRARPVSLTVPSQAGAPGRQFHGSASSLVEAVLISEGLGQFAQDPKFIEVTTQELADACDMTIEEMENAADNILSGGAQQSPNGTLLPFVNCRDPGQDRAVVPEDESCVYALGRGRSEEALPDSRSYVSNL

[5] = molecular target: T4, Serotonin 5-HT1B (Homo sapiens, UniProt P28222); assay: Eurofins SafetyScreen panel; format: binding
T4 construct: Eurofins (contract assay)
T4 sequence (P28222 whole entry): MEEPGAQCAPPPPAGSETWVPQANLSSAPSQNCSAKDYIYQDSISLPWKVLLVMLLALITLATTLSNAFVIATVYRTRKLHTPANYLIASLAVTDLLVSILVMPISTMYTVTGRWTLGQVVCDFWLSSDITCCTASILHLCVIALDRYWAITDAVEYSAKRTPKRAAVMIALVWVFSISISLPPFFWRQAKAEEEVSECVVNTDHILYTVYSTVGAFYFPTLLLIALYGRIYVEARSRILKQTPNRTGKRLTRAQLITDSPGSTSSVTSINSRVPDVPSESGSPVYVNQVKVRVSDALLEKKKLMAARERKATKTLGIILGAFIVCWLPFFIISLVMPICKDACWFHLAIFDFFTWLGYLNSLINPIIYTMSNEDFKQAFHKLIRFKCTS

[6] = molecular target: T5, Protein Tyr Kinase, Insulin receptor (Homo sapiens, UniProt P06213); assay: Eurofins SafetyScreen panel; format: biochemical
T5 construct: Eurofins (contract screening, SafetyScreen panel) PP223

[7] = molecular target: T6, Endothelin ETA (Homo sapiens, UniProt P25101); assay: Eurofins SafetyScreen panel; format: binding
T6 construct: purchased Eurofins (Panlabs) SafetyScreen87 Panel

[8] = molecular target: T7, Histamine H3 (Homo sapiens, UniProt Q9Y5N1); assay: Eurofins SafetyScreen panel; format: binding
T7 construct: purchased Eurofins (Panlabs) SafetyScreen87 Panel
T7 sequence (Q9Y5N1 whole entry): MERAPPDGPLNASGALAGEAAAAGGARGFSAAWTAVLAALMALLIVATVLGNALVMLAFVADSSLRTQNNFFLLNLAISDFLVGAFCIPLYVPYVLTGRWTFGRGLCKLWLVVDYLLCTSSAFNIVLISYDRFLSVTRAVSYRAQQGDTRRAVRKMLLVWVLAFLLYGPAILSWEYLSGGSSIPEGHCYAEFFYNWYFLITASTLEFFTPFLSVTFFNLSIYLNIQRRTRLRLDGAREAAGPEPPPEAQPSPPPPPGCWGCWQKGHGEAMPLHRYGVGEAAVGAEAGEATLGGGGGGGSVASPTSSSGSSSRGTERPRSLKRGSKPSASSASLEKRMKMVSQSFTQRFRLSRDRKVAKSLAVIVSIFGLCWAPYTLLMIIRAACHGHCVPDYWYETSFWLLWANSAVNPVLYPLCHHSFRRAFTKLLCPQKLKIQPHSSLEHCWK

[9] = molecular target: T8, Adrenergic α1B (Rattus norvegicus, UniProt P15823); assay: Eurofins SafetyScreen panel; format: binding
T8 construct: Eurofins (contract screening, SafetyScreen panel) PP223

[10] = molecular target: T9, COX-2 (Homo sapiens, UniProt P35354); assay: Eurofins SafetyScreen panel; format: biochemical
T9 construct: Eurofins

[11] = molecular target: T10, ACE (Oryctolagus cuniculus, UniProt P12822); assay: Eurofins SafetyScreen panel; format: biochemical, rabbit
T10 construct: Eurofins

[12] = molecular target: T11, Opiate κ (OP2, KOP) (Homo sapiens, UniProt P41145); assay: Eurofins SafetyScreen panel; format: binding
T11 construct: Eurofins (contract assay)
T11 sequence (P41145 whole entry): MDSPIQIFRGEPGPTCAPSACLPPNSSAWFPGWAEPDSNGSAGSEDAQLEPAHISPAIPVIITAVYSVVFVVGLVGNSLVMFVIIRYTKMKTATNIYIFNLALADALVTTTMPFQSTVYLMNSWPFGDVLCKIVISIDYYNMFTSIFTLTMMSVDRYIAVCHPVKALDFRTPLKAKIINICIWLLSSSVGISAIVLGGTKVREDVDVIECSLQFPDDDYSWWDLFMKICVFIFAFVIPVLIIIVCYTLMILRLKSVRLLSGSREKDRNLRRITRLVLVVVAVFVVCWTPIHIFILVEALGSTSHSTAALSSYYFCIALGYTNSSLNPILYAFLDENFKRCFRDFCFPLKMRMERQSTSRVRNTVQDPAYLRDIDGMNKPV

[13] = molecular target: CYP2D6 (Homo sapiens, UniProt P10635); assay: Cytochrome P450 inhibition (Eurofins); conditions: at 10 μM; listed as 17, 10 µM
[14] = molecular target: T12, Serotonin 5-HT7 (Homo sapiens, UniProt P34969); assay: Eurofins SafetyScreen panel; format: binding
T12 construct: Eurofins (contract assay) 272320
T12 sequence (P34969 whole entry): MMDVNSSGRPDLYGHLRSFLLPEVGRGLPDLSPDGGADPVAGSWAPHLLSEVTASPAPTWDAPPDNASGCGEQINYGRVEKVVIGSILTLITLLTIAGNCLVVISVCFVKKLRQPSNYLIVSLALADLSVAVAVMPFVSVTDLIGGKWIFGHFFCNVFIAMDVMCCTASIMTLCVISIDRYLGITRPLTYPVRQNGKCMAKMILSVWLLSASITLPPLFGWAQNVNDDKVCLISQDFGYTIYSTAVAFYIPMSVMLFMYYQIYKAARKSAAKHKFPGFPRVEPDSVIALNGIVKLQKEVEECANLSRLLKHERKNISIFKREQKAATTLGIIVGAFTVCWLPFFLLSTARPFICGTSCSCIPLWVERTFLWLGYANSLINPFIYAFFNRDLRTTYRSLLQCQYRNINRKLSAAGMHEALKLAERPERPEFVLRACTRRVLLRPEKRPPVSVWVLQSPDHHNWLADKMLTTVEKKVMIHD

[15] = molecular target: T13, Adenosine A1 (Homo sapiens, UniProt P30542); assay: Eurofins SafetyScreen panel; format: binding
T13 construct: Eurofins (contract screening, SafetyScreen panel) PP223

[16] = molecular target: T14, Cannabinoid CB2 (Homo sapiens, UniProt P34972); assay: Eurofins SafetyScreen panel; format: binding
T14 construct: purchased Eurofins (Panlabs) SafetyScreen87 Panel

[17] = molecular target: CYP2C9 (Homo sapiens, UniProt P11712); assay: Cytochrome P450 inhibition (Eurofins); conditions: at 10 μM; listed as 17, 10 µM
[18] = molecular target: T15, Cathepsin G (Homo sapiens, UniProt P08311); assay: Eurofins SafetyScreen panel; format: biochemical
T15 construct: Eurofins

[19] = molecular target: T16, Muscarinic M1 (Homo sapiens, UniProt P11229); assay: Eurofins SafetyScreen panel; format: binding
T16 construct: Eurofins (contract screening, SafetyScreen panel) PP223
T16 sequence (P11229 1-460): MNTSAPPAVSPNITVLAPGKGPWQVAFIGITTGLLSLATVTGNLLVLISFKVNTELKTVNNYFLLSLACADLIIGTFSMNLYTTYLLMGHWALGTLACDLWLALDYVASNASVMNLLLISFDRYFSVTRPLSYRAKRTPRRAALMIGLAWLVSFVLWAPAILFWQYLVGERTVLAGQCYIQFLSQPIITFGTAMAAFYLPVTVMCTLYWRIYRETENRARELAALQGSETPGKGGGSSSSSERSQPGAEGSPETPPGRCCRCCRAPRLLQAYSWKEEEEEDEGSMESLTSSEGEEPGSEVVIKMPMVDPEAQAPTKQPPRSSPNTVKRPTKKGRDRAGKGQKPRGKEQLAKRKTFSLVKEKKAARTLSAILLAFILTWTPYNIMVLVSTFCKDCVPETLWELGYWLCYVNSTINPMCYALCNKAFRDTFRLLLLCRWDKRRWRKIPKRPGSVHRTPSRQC

[20] = molecular target: T3, Potassium Channel [hERG]; assay: Eurofins SafetyScreen panel
[21] = molecular target: hERG potassium channel (Homo sapiens, UniProt Q12809); assay: in vitro; conditions: %inh
hERG potassium channel, sequence (Q12809 whole entry): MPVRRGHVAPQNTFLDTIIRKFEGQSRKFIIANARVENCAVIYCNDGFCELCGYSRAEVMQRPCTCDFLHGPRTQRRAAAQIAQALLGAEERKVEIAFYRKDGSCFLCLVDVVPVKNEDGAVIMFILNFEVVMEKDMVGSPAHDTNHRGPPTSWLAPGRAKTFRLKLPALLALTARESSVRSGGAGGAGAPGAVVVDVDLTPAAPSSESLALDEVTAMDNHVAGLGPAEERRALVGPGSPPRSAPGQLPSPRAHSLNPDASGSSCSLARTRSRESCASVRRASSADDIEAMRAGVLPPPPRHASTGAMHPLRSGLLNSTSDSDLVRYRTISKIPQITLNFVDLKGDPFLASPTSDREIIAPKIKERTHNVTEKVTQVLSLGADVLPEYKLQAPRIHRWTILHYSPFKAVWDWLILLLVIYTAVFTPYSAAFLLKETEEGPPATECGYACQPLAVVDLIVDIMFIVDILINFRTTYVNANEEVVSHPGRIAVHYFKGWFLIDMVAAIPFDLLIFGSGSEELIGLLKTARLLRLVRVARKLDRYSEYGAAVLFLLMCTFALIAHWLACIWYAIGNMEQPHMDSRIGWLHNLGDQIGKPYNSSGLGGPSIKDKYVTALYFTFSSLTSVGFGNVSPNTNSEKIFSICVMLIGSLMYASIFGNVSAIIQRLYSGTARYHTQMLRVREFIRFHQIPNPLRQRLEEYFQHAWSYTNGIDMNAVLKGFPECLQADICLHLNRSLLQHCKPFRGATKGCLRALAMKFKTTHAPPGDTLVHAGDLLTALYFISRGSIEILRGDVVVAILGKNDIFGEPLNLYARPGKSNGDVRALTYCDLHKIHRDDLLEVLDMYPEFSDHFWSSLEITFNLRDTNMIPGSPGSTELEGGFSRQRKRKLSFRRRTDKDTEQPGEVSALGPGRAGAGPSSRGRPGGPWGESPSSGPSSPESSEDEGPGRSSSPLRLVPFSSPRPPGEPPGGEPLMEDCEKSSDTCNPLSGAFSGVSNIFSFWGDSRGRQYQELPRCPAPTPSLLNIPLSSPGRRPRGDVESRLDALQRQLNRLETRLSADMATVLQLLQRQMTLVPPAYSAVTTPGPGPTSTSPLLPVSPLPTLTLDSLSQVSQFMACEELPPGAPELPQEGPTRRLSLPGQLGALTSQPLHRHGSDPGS

[22] = molecular target: T17, Adrenergic α2B (Homo sapiens, UniProt P18089); assay: Eurofins SafetyScreen panel; format: binding
T17 construct: Eurofins (contract screening, SafetyScreen panel) PP223
T17 sequence (P18089 1-450): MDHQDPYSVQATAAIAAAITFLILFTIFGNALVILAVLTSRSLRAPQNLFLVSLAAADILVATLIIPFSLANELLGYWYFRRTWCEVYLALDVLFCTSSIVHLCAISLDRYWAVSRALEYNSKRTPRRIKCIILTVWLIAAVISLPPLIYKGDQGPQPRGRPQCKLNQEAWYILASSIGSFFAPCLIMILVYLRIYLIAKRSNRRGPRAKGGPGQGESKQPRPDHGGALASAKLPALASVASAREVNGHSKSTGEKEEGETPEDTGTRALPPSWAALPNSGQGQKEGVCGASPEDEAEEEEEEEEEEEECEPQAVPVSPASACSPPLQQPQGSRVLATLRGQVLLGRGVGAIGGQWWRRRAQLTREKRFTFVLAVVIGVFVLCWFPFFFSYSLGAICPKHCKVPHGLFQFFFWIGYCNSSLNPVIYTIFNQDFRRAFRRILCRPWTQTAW

[23] = read-out: %inh, 10 μM, additional batch

**Q.** Which inhibition at 10 µM [1] does the source give for `O=S(=O)(c1cccc(F)c1)n1ccc2c(N3CCNCC3)nc3ccccc3c21` [FPPQ, 1-[(3-Fluorophenyl)sulfonyl]-4-(piperazin-1-yl)-1H-pyrrolo[3,2-c]quinoline dihydrochloride] here?
**A.** The inhibition at 10 µM was 21%.

**Q.** And the inhibition at 10 µM [2]?
**A.** The inhibition at 10 µM was 1%.

**Q.** And the pIC50 [3]?
**A.** The pIC50 was 5.94.

**Q.** And the inhibition at 0.01 µM ([4]; 10 nM)?
**A.** The inhibition at 0.01 µM was -3%.

**Q.** And the inhibition at 1 µM ([4]; 1 μM)?
**A.** The inhibition at 1 µM was 46%.

**Q.** What about the inhibition at 10 µM [4] of the same molecule?
**A.** The inhibition at 10 µM was 83%.

**Q.** What about the inhibition at 10 µM ([4]; additional batch) of the same molecule?
**A.** The inhibition at 10 µM was 92%.

**Q.** What about the pIC50 [5] of the same molecule?
**A.** Its pIC50 is 5.93.

**Q.** And the pKi [5]?
**A.** The pKi was 6.05.

**Q.** What about the inhibition at 0.01 µM ([5]; read-out: %inh, 10 nM) of the same molecule?
**A.** The inhibition at 0.01 µM was 5%.

**Q.** And the inhibition at 0.1 µM ([5]; read-out: %inh, 0.1 μM)?
**A.** The inhibition at 0.1 µM was 4%.

**Q.** And the inhibition at 1 µM ([5]; read-out: %inh, 1 μM)?
**A.** Its inhibition at 1 µM is 47%.

**Q.** What about the inhibition at 10 µM ([5]; read-out: %inh, 10 μM) of the same molecule?
**A.** Its inhibition at 10 µM is 90%.

**Q.** What about the inhibition at 10 µM [5, 23] of the same molecule?
**A.** The inhibition at 10 µM was 92%.

**Q.** What about the inhibition at 10 µM [6] of the same molecule?
**A.** The inhibition at 10 µM was -6%.

**Q.** And the inhibition at 10 µM [7]?
**A.** Its inhibition at 10 µM is 3%.

**Q.** And the inhibition at 10 µM [8]?
**A.** Its inhibition at 10 µM is 26%.

**Q.** What about the inhibition at 10 µM [9] of the same molecule?
**A.** Its inhibition at 10 µM is 29%.

**Q.** What about the inhibition at 10 µM [10] of the same molecule?
**A.** The inhibition at 10 µM was -13%.

**Q.** What about the inhibition at 10 µM [11] of the same molecule?
**A.** Its inhibition at 10 µM is -9%.

**Q.** What about the pIC50 [12] of the same molecule?
**A.** The pIC50 was 5.09.

**Q.** What about the pKi [12] of the same molecule?
**A.** The pKi was 5.49.

**Q.** What about the inhibition at 0.1 µM ([12]; read-out: %inh, 0.1 μM) of the same molecule?
**A.** Its inhibition at 0.1 µM is 5%.

**Q.** What about the inhibition at 1 µM ([12]; read-out: %inh, 1 μM) of the same molecule?
**A.** The inhibition at 1 µM was 8%.

**Q.** And the inhibition at 10 µM ([12]; read-out: %inh, 10 μM)?
**A.** The inhibition at 10 µM was 55%.

**Q.** What about the inhibition at 10 µM [12, 23] of the same molecule?
**A.** The inhibition at 10 µM was 64%.

**Q.** What about the inhibition at 100 µM ([12]; read-out: %inh, 100 μM) of the same molecule?
**A.** The inhibition at 100 µM was 99%.

**Q.** And the “cytochrome P450 inhibition 2D6” value [13]?
**A.** Its value is < 25% inh at 10 uM.

**Q.** And the inhibition at 0.1 µM ([14]; read-out: %inh, 0.1 μM)?
**A.** Its inhibition at 0.1 µM is -1%.

**Q.** What about the inhibition at 1 µM ([14]; read-out: %inh, 1 μM) of the same molecule?
**A.** Its inhibition at 1 µM is 21%.

**Q.** What about the inhibition at 10 µM ([14]; read-out: %inh, 10 μM) of the same molecule?
**A.** Its inhibition at 10 µM is 65%.

**Q.** And the inhibition at 10 µM [14, 23]?
**A.** The inhibition at 10 µM was 67%.

**Q.** And the inhibition at 100 µM ([14]; read-out: %inh, 100 μM)?
**A.** The inhibition at 100 µM was 93%.

**Q.** What about the inhibition at 10 µM [15] of the same molecule?
**A.** The inhibition at 10 µM was 29%.

**Q.** And the inhibition at 10 µM [16]?
**A.** The inhibition at 10 µM was -21%.

**Q.** And the “cytochrome P450 inhibition 2C9” value [17]?
**A.** Its value is < 25% inh at 10 uM.

**Q.** And the inhibition at 10 µM [18]?
**A.** The inhibition at 10 µM was -1%.

**Q.** What about the pIC50 [19] of the same molecule?
**A.** The pIC50 was 5.10.

**Q.** And the pKi [19]?
**A.** Its pKi is 5.71.

**Q.** What about the inhibition at 0.1 µM ([19]; read-out: %inh) of the same molecule?
**A.** The inhibition at 0.1 µM was 3%.

**Q.** And the inhibition at 1 µM ([19]; read-out: %inh)?
**A.** The inhibition at 1 µM was 13%.

**Q.** What about the inhibition at 100 µM ([19]; read-out: %inh) of the same molecule?
**A.** Its inhibition at 100 µM is 98%.

**Q.** And the pKi [20]?
**A.** The pKi was 6.03.

**Q.** And the inhibition at 0.01 µM ([21]; 10 nM)?
**A.** Its inhibition at 0.01 µM is 9%.

**Q.** And the inhibition at 0.1 µM ([21]; 0.1 μM)?
**A.** Its inhibition at 0.1 µM is 9%.

**Q.** What about the inhibition at 1 µM ([21]; 1 μM) of the same molecule?
**A.** The inhibition at 1 µM was 32%.

**Q.** What about the inhibition at 10 µM [21] of the same molecule?
**A.** Its inhibition at 10 µM is 107%.

**Q.** And the inhibition at 10 µM ([21]; additional batch)?
**A.** The inhibition at 10 µM was 101%.

**Q.** And the pIC50 [22]?
**A.** Its pIC50 is 5.00.

**Q.** What about the pKi [22] of the same molecule?
**A.** Its pKi is 5.34.

**Q.** What about the inhibition at 0.1 µM ([22]; read-out: %inh, 0.1 μM) of the same molecule?
**A.** Its inhibition at 0.1 µM is 1%.

**Q.** And the inhibition at 1 µM ([22]; read-out: %inh, 1 μM)?
**A.** The inhibition at 1 µM was -4%.

**Q.** What about the inhibition at 10 µM ([22]; read-out: %inh, 10 μM) of the same molecule?
**A.** The inhibition at 10 µM was 43%.

**Q.** What about the inhibition at 10 µM [22, 23] of the same molecule?
**A.** Its inhibition at 10 µM is 53%.

**Q.** And the inhibition at 100 µM ([22]; read-out: %inh, 100 μM)?
**A.** Its inhibition at 100 µM is 108%.
